Laboratory results: paper PMC9896891 (International Journal of Biological Macromolecules, 2023)
pKd: −log10 of the molar value. Where a name gives a salt, the structure may show the parent alone. Read-outs that look alike come from different tables or passages of the source.

Experiments:
[1] = target: T1, SARS-CoV-2 Main protease (M^pro) (Severe acute respiratory syndrome coronavirus 2, UniProt P0DTD1); format: binding
[2] = target: T1, SARS-CoV-2 Main protease (M^pro); test: biochemical; format: binding
[3] = tested on: SARS-CoV-2; format: cell-based
[4] = tested on: SARS-CoV-2; test: Treatment points; format: cell-based; settings: Vero cells, 48 h
[5] = screen of 156 drugs and natural compounds
[6] = relative to M^pro alone (53.5 ± 1 °C)
[7] = compound 8, relative to H2–2/8/9

COc1ccc([C@@H]2Sc3ccccc3N(CCN(C)C)C(=O)[C@@H]2OC(C)=O)cc1 [Compound 1, Diltiazem hydrochloride]
Relative STD saturation, C-4 methyl protons (H3–4) ([1]; compound 1, largest STD integral, reference): 100% | Relative STD saturation, H3–28/H3–29 ([1]; compound 1, relative to H3–4): 31.99% | Interaction with M^pro in STD-NMR spectroscopy [1, 5]: interacting | pKd [2]: ~4.36 | % Reduction in viral plaques ([3]; 83 μM, Vero cells): 81–88% | Therapeutic Effect, Log10 of Fold Change ([4]; 42.5 μM): 2.00 | Therapeutic Effect, Log10 of Fold Change ([4]; 83 μM): 2.02

Cc1cccc(Nc2ccccc2C(=O)O)c1C [Compound 2, Mefenamic acid]
Relative STD saturation, H3–16 ([1]; compound 2, largest STD integral, reference): 100% | Relative STD saturation, H3–15 ([1]; compound 2, relative to H3–16): 90.7% | Interaction with M^pro in STD-NMR spectroscopy [1, 5]: interacting | pKd [2]: ~4.82 | Modulation of Tm of M^pro [2, 6]: +2.9 °C | % Reduction in viral plaques ([3]; 83 μM, Vero cells): 81–88%

CCCCc1nc(Cl)c(CO)n1Cc1ccc(-c2ccccc2-c2nn[nH]n2)cc1 [Compound 3, Losartan potassium]
Relative STD saturation, H2–7 ([1]; compound 3, largest STD integral, reference): 100% | Relative STD saturation, H2–8 ([1]; compound 3, relative to H2–7): 45.22% | Relative STD saturation, H2–9 ([1]; compound 3, relative to H2–7): 42.15% | Relative STD saturation, H3–10 ([1]; compound 3, relative to H2–7): 31.49% | Interaction with M^pro in STD-NMR spectroscopy [1, 5]: interacting | pKd [2]: ~4.19 | % Reduction in viral plaques ([3]; 83 μM, Vero cells): 54.54%

Cc1cccc(C)c1OCC(C)N (centres unmarked) [Compound 4, Mexiletine hydrochloride]
Interaction with M^pro in STD-NMR spectroscopy [1]: interacting | Relative STD saturation, H-6/H-8 [1]: 86.87% | Relative STD saturation, aromatic H-7 [1]: 100% | Relative STD saturation, methyl H-3 [1]: 20% | pKd [2]: ~4.68 | Modulation of Tm of M^pro [2]: +2.9 °C | % Reduction in viral plaques [3]: 75.5%

CC(C(=O)O)c1ccc(-c2ccccc2)c(F)c1 (centres unmarked) [Compound 7, Flurbiprofen]
Relative STD saturation, methyl H-1 ([1]; compound 7, highest integral, reference): 100% | Relative STD saturation, H-2 ([1]; compound 7, relative to H-1): 44.10% | Interaction with M^pro in STD-NMR spectroscopy [1, 5]: interacting | pKd [2]: ~4.18 | % Reduction in viral plaques ([3]; 83 μM, Vero cells): 59.09%

NC12CC3CC(CC(C3)C1)C2 [Compound 8, Amantadine hydrochloride]
Relative STD saturation, H2–2, H2–8, H2–9 ([1]; compound 8, highest STD integral, reference): 100% | Relative STD saturation, H2–4, H2–6, H2–10 [1, 7]: 59–64% | Relative STD saturation, H-3, H-5, H-7 [1, 7]: 78% | Interaction with M^pro in STD-NMR spectroscopy [1, 5]: interacting | Modulation of Tm of M^pro [2, 6]: +2.9 °C | % Reduction in viral plaques ([3]; 83 μM, Vero cells): 77.27%

COc1ccc2c(c1)[C@]13CCCC[C@@H]1[C@H](C2)N(C)CC3 [Compound 9, Dextromethorphan]
Relative STD saturation, 2H-16 ([1]; compound 9, reference proton): highest saturation | Relative STD saturation, H-6 ([1]; compound 9, relative to 2H-16): 95% | Relative STD saturation, aromatic H-10 ([1]; compound 9, relative to 2H-16): 70.6% | Relative STD saturation, methyl 3H-18 ([1]; compound 9, relative to 2H-16): 30.8% | Relative STD saturation, methyl 3H-20 ([1]; compound 9, relative to 2H-16): 12.8% | Interaction with M^pro in STD-NMR spectroscopy [1, 5]: interacting | % Reduction in viral plaques ([3]; 83 μM, Vero cells): 81–88% | Therapeutic Effect, Log10 of Fold Change ([4]; 83 μM): 2.11

CCN(CC)CCCC(C)Nc1ccnc2cc(Cl)ccc12 (centres unmarked) [Compound 11, Chloroquine phosphate]
% Reduction in viral plaques ([3]; 41.5 μM, Vero cells): 63.2% | % Reduction in viral plaques ([3]; 83 μM, Vero cells): 100%

C[C@@H]1C[C@H]2[C@@H]3CCC4=CC(=O)C=C[C@]4(C)[C@@]3(F)[C@@H](O)C[C@]2(C)[C@@]1(O)C(=O)CO [Compound 12, Dexamethasone]
Relative STD saturation, Ha-6 ([1]; compound 12, highest STD integral, reference): 100% | Relative STD saturation, Ha-7 ([1]; compound 12, relative to Ha-6): 58.8% | Relative STD saturation, Hb-6 ([1]; compound 12, relative to Ha-6): 54.8% | Relative STD saturation, Hb-7 ([1]; compound 12, relative to Ha-6): 18.77% | Relative STD saturation, methyl H3–19 ([1]; compound 12, relative to Ha-6): 4.13% | Modulation of Tm of M^pro [2, 6]: +2.9 °C | % Reduction in viral plaques ([3]; 83 μM, Vero cells): 77.27%

CCC(CC)COC(=O)[C@H](C)N[P@](=O)(OC[C@H]1O[C@@](C#N)(c2ccc3c(N)ncnn23)[C@H](O)[C@@H]1O)Oc1ccccc1 [Compound 13, Remdesivir]
Relative STD saturation, H-37 ([1]; compound 13, highest STD integral, reference): 100% | Relative STD saturation, H-18/H-22 ([1]; compound 13, relative to H-37): 64.95% | Relative STD saturation, H-19/H-21 ([1]; compound 13, relative to H-37): 69.88% | Relative STD saturation, H-20 ([1]; compound 13, relative to H-37): 55.82% | Relative STD saturation, H-34 ([1]; compound 13, relative to H-37): 78.86% | Relative STD saturation, H-35 ([1]; compound 13, relative to H-37): 80.79% | % Reduction in viral plaques ([3]; 83 μM, Vero cells): 81–88%
